≈ marks a conversion by molar mass, not a printed value.
Assays:
Assay type in all cases: functional
Klebsiella pneumoniae = test: Antibacterial activity against Klebsiella pneumoniae ATCC 27736 by micro-broth dilution method
Candida albicans [1] = test: Ratio of miconazole MIC50 to compound MIC50 for Candida albicans
[2] = system: Trichophyton mentagrophytes; test: Antifungal activity against Trichophyton mentagrophytes by broth microdilution method
Candida parapsilosis [3] = test: Ratio of 2-chloro-3-(4-hydroxyphenylamino)naphthalene-1,4-dione MIC50 to compound MIC50 for Candida parapsilosis
Aspergillus fumigatus = test: Antifungal activity against Aspergillus fumigatus by broth microdilution method
Cryptococcus neoformans = test: Antifungal activity against Cryptococcus neoformans by broth microdilution method
Candida parapsilosis [4] = test: Ratio of 2-Chloro-3-phenylsulfanyl-[1,4]naphthoquinone MIC50 to compound MIC50 for Candida parapsilosis
Pseudomonas aeruginosa = test: Antibacterial activity against Pseudomonas aeruginosa by micro-broth dilution method
Escherichia coli = test: Antibacterial activity against Escherichia coli by micro-broth dilution method
Staphylococcus aureus = test: Antibacterial activity against Staphylococcus aureus ATCC 25923 by micro-broth dilution method
Candida albicans [5] = test: Antifungal activity against Candida albicans by broth microdilution method
Candida parapsilosis [6] = test: Antifungal activity against Candida parapsilosis by broth microdilution method; conditions: Lodderomyces parapsilosis
Sporothrix schenckii = test: Antifungal activity against Sporothrix schenckii by broth microdilution method

| Compound | MIC (Klebsiella pneumoniae) [µg/mL] | Ratio (Candida albicans [1]) | MIC [2] [µg/mL] | Ratio (Candida parapsilosis [3]) | MIC (Aspergillus fumigatus) [µg/mL] | MIC (Cryptococcus neoformans) [µg/mL] | Ratio (Candida parapsilosis [4]) | MIC (Pseudomonas aeruginosa) [µg/mL] | MIC (Escherichia coli) [µg/mL] | MIC (Staphylococcus aureus) [µg/mL] | MIC (Candida albicans [5]) [µg/mL] | MIC (Candida parapsilosis [6]) [µg/mL] | MIC (Sporothrix schenckii) [µg/mL] |
| --- | --- | --- | --- | --- | --- | --- | --- | --- | --- | --- | --- | --- | --- |
| Cc1ccc(OC2=C(Cl)C(=O)c3ccccc3C2=O)cc1 | > 50 | 4 | 1.56 (≈ 5.22 µM) | 2 | 25 (≈ 83.7 µM) | 12.5 (≈ 41.8 µM) | 2 | > 50 | 25 (≈ 83.7 µM) | 12.5 (≈ 41.8 µM) | 6.25 (≈ 20.9 µM) | 3.12 (≈ 10.4 µM) | 0.78 (≈ 2.61 µM) |
| Clc1ccc(COC(Cn2ccnc2)c2ccc(Cl)cc2Cl)c(Cl)c1 (centres undefined) [MICONAZOLE] |  |  | < 0.78 |  | 12.5 (≈ 30 µM) | 12.5 (≈ 30 µM) |  |  |  |  | 25 (≈ 60.1 µM) |  |  |
| O=C1C(Cl)=C(Oc2ccc(Cl)cc2)C(=O)c2ccccc21 | > 50 | 2 | 1.56 (≈ 4.89 µM) |  | > 50 | 12.5 (≈ 39.2 µM) |  | > 50 | > 50 | 50 (≈ 157 µM) | 12.5 (≈ 39.2 µM) | 6.25 (≈ 19.6 µM) | 1.56 (≈ 4.89 µM) |
| NC[C@H]1O[C@H](O[C@H]2[C@H](O)[C@@H](O[C@H]3O[C@H](CO)[C@@H](O)[C@H](N)[C@H]3O)[C@H](N)C[C@@H]2N)[C@H](O)[C@@H](O)[C@@H]1O [KANAMYCIN] | > 128 |  |  |  |  |  |  | 32 (≈ 66 µM) | 16 (≈ 33 µM) | 2 (≈ 4.13 µM) |  |  |  |
| NCC[C@H](O)C(=O)N[C@@H]1C[C@H](N)[C@@H](O[C@H]2O[C@H](CN)[C@@H](O)[C@H](O)[C@H]2O)[C@H](O)[C@H]1O[C@H]1O[C@H](CO)[C@@H](O)[C@H](N)[C@H]1O [AMIKACIN] | 2 (≈ 3.42 µM) |  |  |  |  |  |  | 1 (≈ 1.71 µM) | 1 (≈ 1.71 µM) | 16 (≈ 27.3 µM) |  |  |  |
| C[C@@H]1[C@H](O)[C@@H](C)/C=C/C=C/C=C/C=C/C=C/C=C/C=C/[C@H](O[C@@H]2O[C@H](C)[C@@H](O)[C@H](N)[C@@H]2O)C[C@@H]2O[C@](O)(C[C@@H](O)C[C@@H](O)[C@H](O)CC[C@@H](O)C[C@@H](O)CC(=O)O[C@H]1C)C[C@H](O)[C@H]2C(=O)O [AMPHOTERICIN B] |  |  | 1.56 (≈ 1.69 µM) |  |  | 0.78 (≈ 0.844 µM) |  |  |  |  | 0.39 (≈ 0.422 µM) |  |  |
| O=c1c2oc3ccccc3oc=2c(=O)c2ccccc12 | > 50 | 4 | 1.56 (≈ 5.9 µM) | 2 | 25 (≈ 94.6 µM) | 12.5 (≈ 47.3 µM) | 2 | > 50 | 50 (≈ 189 µM) | 25 (≈ 94.6 µM) | 6.25 (≈ 23.7 µM) | 3.12 (≈ 11.8 µM) | 0.78 (≈ 2.95 µM) |
| O=C1C=C(Sc2ccccc2)C(=O)c2ccccc21 |  |  | 0.78 (≈ 2.93 µM) |  | 25 (≈ 93.9 µM) | 1.56 (≈ 5.86 µM) |  |  |  |  | 12.5 (≈ 46.9 µM) |  |  |
| NC[C@H]1O[C@H](O[C@H]2[C@H](O)[C@@H](O[C@H]3O[C@H](CO)[C@@H](O)[C@H](N)[C@H]3O)[C@H](N)C[C@@H]2N)[C@H](N)C[C@@H]1O [TOBRAMYCIN] | 4 (≈ 8.56 µM) |  |  |  |  |  |  | 1 (≈ 2.14 µM) | 0.5 (≈ 1.07 µM) | 0.25 (≈ 0.535 µM) |  |  |  |
| NYSTATIN |  |  |  |  |  | 3.5 |  |  |  |  | 7.8 |  | 13.2 |
| COc1ccc(OC2=C(Cl)C(=O)c3ccccc3C2=O)cc1 | > 50 | 2 | 1.56 (≈ 4.96 µM) |  | 50 (≈ 159 µM) | 12.5 (≈ 39.7 µM) |  | > 50 | > 50 | 50 (≈ 159 µM) | 12.5 (≈ 39.7 µM) | 6.25 (≈ 19.9 µM) | 1.56 (≈ 4.96 µM) |

From ChEMBL document CHEMBL1909533, “Micelles catalyzed chemoselective synthesis 'in water' and biological evaluation of oxygen containing hetero-1,4-naphthoquinones as potential antifungal agents” (2011)
